This note sets out measurements from ChEMBL document CHEMBL4270621, “Discovery of long-chain salicylketoxime derivatives as monoacylglycerol lipase (MAGL) inhibitors” (Eur J Med Chem, 2018).

pIC50: −log10 of the molar value. Active and inactive are the calls of the source. No cut-off for these calls is given here. Some results are limits rather than exact numbers.

In test [1] the target is T1, Monoglyceride lipase (Homo sapiens, UniProt Q99685).
T1 sequence (Q99685 whole entry): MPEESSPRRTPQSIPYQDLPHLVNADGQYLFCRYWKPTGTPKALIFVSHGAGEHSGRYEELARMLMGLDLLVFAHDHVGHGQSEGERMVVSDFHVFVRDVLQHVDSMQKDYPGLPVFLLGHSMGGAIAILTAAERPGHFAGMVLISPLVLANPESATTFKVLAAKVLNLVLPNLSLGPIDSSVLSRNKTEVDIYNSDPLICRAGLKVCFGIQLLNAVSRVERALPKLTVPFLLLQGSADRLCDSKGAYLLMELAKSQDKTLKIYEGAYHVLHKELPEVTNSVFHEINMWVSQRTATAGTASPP
The experiment in a line: Inhibition of recombinant human C-terminal His-tagged MAGL expressed in Escherichia coli using 4-NPA as substrate measured after 30 mins.

The next test relates to MDA-MB-231. The experiment in a line: Antiproliferative activity against human MDA-MB-231 cells measured after 96 hrs. It is filed as functional, cell-based. Particulars: MDA-MB-231, 96 h.
The target of test [2] is T2, Fatty-acid amide hydrolase 1 (Homo sapiens, UniProt O00519).
T2 sequence (O00519 whole entry): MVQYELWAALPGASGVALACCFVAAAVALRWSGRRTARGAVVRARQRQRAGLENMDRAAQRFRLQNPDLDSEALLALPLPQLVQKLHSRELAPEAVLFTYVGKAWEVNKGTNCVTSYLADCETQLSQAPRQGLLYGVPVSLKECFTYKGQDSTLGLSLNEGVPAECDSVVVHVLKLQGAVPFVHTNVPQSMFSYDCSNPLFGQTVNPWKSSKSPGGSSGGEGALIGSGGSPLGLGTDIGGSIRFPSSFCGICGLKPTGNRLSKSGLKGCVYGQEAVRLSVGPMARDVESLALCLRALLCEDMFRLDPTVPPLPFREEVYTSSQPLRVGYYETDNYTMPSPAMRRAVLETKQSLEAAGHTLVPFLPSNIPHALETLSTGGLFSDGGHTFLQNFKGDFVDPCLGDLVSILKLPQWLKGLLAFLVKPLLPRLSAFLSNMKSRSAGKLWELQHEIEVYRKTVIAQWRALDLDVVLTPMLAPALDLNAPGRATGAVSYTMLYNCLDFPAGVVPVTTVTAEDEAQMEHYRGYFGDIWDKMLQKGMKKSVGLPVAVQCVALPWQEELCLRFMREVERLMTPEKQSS
The experiment in a line: Inhibition of FAAH in human U937 cells using [ethanolamine-1-3H]AEA as substrate pretreated for 30 mins followed by substrate addition and measured after 15 mins by liquid scintillation counting method. It is filed as cell-based.

In a further test the test system is HCT-116. The experiment in a line: Antiproliferative activity against human HCT116 cells measured after 96 hrs. The settings on record: HCT-116, 96 h. It is filed as functional, cell-based.
Test [3] addresses T3, Monoglyceride lipase (Homo sapiens) (UniProt Q99685).
T3 sequence (whole entry): T1 sequence (Q99685 whole entry)
The experiment in a line: Reversible inhibition of recombinant human C-terminal His-tagged MAGL expressed in Escherichia coli at 20 uM using 4-NPA as substrate pretreated for 60 mins followed by 40 times compound dilution for 15 mins and subsequent substrate addition measured after 30 mins.

For test [4], the target named is T3, Monoglyceride lipase (Homo sapiens). The experiment in a line: Reversible inhibition of recombinant human C-terminal His-tagged MAGL expressed in Escherichia coli using 4-NPA as substrate pretreated up to 60 mins followed by substrate addition and measured after 30 mins.
For test [5], the target named is T4, Cannabinoid receptor 1 (Homo sapiens, UniProt P21554). The test is described as follows: Displacement of [3H]CP55940 from recombinant human CB1 expressed in crude membranes at 10 uM after 90 mins by liquid scintillation counting method relative to control. The format is cell membranes.
T4 sequence (P21554 whole entry): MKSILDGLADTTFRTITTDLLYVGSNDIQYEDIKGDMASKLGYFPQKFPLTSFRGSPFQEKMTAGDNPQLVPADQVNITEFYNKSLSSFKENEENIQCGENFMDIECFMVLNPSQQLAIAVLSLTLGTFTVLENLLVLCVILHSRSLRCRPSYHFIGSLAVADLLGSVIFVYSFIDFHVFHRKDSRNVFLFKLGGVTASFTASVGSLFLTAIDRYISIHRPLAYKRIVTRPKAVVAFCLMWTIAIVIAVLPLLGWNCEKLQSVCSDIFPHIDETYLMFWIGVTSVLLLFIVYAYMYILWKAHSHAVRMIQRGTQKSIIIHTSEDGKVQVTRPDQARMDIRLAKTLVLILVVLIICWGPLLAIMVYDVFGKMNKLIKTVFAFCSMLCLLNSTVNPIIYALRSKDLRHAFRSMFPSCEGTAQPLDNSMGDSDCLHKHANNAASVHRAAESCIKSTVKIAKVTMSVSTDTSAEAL
The target in test [6] is T4, Cannabinoid receptor 1. The experiment in a line: Displacement of [3H]CP55940 from recombinant human CB1 expressed crude membranes after 90 mins by liquid scintillation counting method.
In test [7] the target is T1, Monoglyceride lipase. The test is described as follows: Inhibition of recombinant human C-terminal His-tagged MAGL expressed in Escherichia coli using 4-NPA as substrate pretreated with substrate 15 mins in presence of DTT followed by enzyme addition measured after 30 mins.
Another test concerns Caov-3 cell line. The experiment in a line: Antiproliferative activity against human Caov3 cells measured after 96 hrs. The settings on record: Caov-3, 96 h. The format is functional, cell-based.
Test [8] has as its target T1, Monoglyceride lipase. The test is described as follows: Inhibition of recombinant human C-terminal His-tagged MAGL expressed in Escherichia coli using 4-NPA as substrate pretreated with substrate 15 mins followed by enzyme addition measured after 30 mins.
The test system of a further test is OVCAR-3. The experiment in a line: Antiproliferative activity against human OVCAR3 cells measured after 96 hrs. The format is functional, cell-based. Particulars: OVCAR-3, 96 h.
The test system of another test is SK-OV-3. The experiment in a line: Antiproliferative activity against human SKOV3 cells measured after 96 hrs. Particulars: SK-OV-3, 96 h. The format is functional, cell-based.
Test [9] deals with T5, Estrogen receptor (Homo sapiens) (UniProt P03372).
T5 sequence (whole entry): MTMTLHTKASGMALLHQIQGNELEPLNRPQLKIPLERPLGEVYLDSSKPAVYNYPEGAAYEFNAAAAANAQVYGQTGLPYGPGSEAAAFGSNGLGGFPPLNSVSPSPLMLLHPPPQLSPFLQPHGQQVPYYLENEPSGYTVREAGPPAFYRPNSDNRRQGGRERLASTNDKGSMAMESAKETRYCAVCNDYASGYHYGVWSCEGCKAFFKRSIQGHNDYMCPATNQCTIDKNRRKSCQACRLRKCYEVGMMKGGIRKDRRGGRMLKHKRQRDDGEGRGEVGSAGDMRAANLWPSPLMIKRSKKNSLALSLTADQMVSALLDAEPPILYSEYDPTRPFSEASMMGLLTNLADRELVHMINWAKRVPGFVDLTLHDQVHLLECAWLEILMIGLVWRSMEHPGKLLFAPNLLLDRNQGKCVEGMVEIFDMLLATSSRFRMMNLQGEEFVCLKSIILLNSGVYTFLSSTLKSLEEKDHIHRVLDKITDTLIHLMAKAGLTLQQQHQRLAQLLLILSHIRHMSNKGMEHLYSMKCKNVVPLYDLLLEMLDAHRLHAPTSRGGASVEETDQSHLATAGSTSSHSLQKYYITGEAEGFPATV
The test is described as follows: Displacement of [3H]-estradiol from full length human untagged ERalpha expressed in Sf insect cells after 18 to 24 hrs by radiometric method relative to estradiol.

The target in test [10] is Estrogen receptor beta (Homo sapiens) (UniProt Q92731). The experiment in a line: Displacement of [3H]-estradiol from full length human ERbeta expressed in insect cells after 18 to 24 hrs by radiometric method relative to estradiol.
Estrogen receptor beta (Homo sapiens), sequence (Q92731 whole entry): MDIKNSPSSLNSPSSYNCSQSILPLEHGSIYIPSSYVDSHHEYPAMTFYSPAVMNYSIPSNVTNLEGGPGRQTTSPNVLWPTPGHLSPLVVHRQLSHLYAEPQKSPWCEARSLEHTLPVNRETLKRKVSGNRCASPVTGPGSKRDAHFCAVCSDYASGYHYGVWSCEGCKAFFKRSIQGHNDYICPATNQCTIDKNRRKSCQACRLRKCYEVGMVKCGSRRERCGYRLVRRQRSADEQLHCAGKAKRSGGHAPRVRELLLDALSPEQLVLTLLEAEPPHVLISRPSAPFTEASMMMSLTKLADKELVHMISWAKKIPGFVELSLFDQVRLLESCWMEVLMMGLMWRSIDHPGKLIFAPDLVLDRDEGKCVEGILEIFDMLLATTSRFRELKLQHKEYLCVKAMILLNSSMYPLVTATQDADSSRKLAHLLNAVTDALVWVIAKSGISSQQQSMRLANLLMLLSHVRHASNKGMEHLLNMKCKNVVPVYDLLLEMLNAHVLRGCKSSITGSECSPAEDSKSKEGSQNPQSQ

For `CCCCCCCCCCCCC/C(=N\O)c1cc(-c2ccc(OC)c(F)c2)ccc1O`, on Monoglyceride lipase [1], the negative-log IC50 (pIC50) was under 3.70.

`CCCCCCCCCCCCC/C(=N\O)c1cc(-c2ccc(O)c(F)c2)ccc1O`: the pIC50 is 4.14 in the test with MDA-MB-231; 5.06 in test [2]; 6.17 at Monoglyceride lipase [1]; 4.96 with HCT-116; 5.39 on Cannabinoid receptor 1 [6]; 6.15 on Monoglyceride lipase [7]. The pIC50 was 4.85 in the test on Caov-3 cell line, 6.17 at Monoglyceride lipase [8], 4.55 with OVCAR-3 and 4.59 in the test on SK-OV-3. For the same molecule, the inhibition entry in test [3] and in test [4] was “Active” in each case. Also, the inhibition on Cannabinoid receptor 1 [5] was 5%.

For the molecule `CC/C(=N\O)c1cc(-c2ccc(O)c(F)c2)ccc1O`, the pIC50 at Monoglyceride lipase [1] was 4.96. Also, the RBA came out at 2.1% in test [9] and 37% in test [10].

In the case of `CCCC/C(=N\O)c1cc(-c2ccc(OC)cc2)ccc1O`, at Monoglyceride lipase [1], the pIC50 was 3.92.

With `C/C(=N\O)c1cc(-c2ccc(O)c(F)c2)ccc1O`, at Monoglyceride lipase [1], the pIC50 is 4.47.

On to `COc1nn(-c2ccc(NC(=O)OCc3ccccc3)c(C)c2)c(=O)o1`, for which the negative-log IC50 (pIC50) was 4.38 in the test on MDA-MB-231; 4.05 in the test on HCT-116; 4.04 with Caov-3 cell line; 4.30 with OVCAR-3; 4.47 in the test with SK-OV-3.

As for `CCCCCCCCCCC/C(=N\O)c1cc(-c2ccc(O)c(F)c2)ccc1O`, the pIC50 in the test with MDA-MB-231 was 4.35; in test [2], 5.39; on Monoglyceride lipase [1], 6.15; with HCT-116 it was 5.12; on Cannabinoid receptor 1 [6] it was 5.59; in the test with Caov-3 cell line, 4.96. Further, the pIC50 with OVCAR-3 is 4.40; with SK-OV-3 it was 4.70. The inhibition on Cannabinoid receptor 1 [5] worked out at 5%.

Consider `CCCCCCCCCCCCCCC/C(=N\O)c1cc(-c2ccc(OC)c(F)c2)ccc1O`, for which the pIC50 at Monoglyceride lipase [1] was under 3.70.
